Measurements as given in ChEMBL document CHEMBL1817540, “Design and discovery of a selective small molecule κ opioid antagonist (2-methyl-N-((2'-(pyrrolidin-1-ylsulfonyl)biphenyl-4-yl)methyl)propan-1-amine, PF-4455242)” (J Med Chem, 2011).
Values after ≈ are worked out from the molar mass of the structure shown.

Assays:
[1] = Solubility of compound at pH 5.5; format: physicochemical; conditions: buffer
[2] = Permeability across dog RRCK cells; format: ADME, cell-based, Canis lupus familiaris, MDCKII-LE; conditions: MDCK, read-out: permeability
[3] = Penetration ratio, ratio of fAUC (0 to 4 hrs) in Sprague-Dawley rat brain to fAUC (0 to 4 hrs) in Sprague-Dawley rat plasma at […], sc; format: ADME, organism-based; design: dose 3.2 mg/kg, route subcutaneous
[4] = Penetration ratio, ratio of AUC (0 to 4 hrs) in Sprague-Dawley rat CSF to AUC (0 to 4 hrs) in Sprague-Dawley rat unbound plasma at […], sc; format: ADME, organism-based; design: dose 3.2 mg/kg, route subcutaneous; conditions: read-out: Ratio AUC
[5] = Permeability of the compound by PAMPA; format: ADME; conditions: read-out: permeability
[6] = Solubility of compound at pH 6.6; format: physicochemical; conditions: buffer

## CC(C)CNCc1ccc(-c2ccccc2S(=O)(=O)N2CCCC2)cc1 [PF-04455242]
[1]
  solubility: > 8530 µg/mL
[2]
  Papp: 19 ×10⁻⁶ cm/s
[3]
  Kp uu: 1
[4]
  Kp uu: 1.2
[5]
  Papp: 19 ×10⁻⁶ cm/s
[6]
  solubility: 110 µg/mL (≈ 295 µM)
